# Calls of active or inactive are those of the source. The rule behind the calls is not given here.
# Experiments:
# [1] = Toxicity in BALB/c mouse xenografted with human NCI-H1975 cells assessed as mortality at 10 to 20 mg/kg, ig for one week; assay type: organism-based; conditions: in vivo, po
# NCI-H1975 [2] = test: Antitumor activity against human NCI-H1975 cells xenografted in BALB/c mouse assessed as tumor growth inhibition at 20 mg/kg, ig for one week; assay type: functional
# NCI-H1975 [3] = test: Antitumor activity against human NCI-H1975 cells xenografted in BALB/c mouse assessed as tumor volume at 20 mg/kg, ig for one week (reference value: 835.52 mm3); assay type: functional
# [4] = Toxicity in BALB/c mouse xenografted with human NCI-H1975 cells assessed as body weight at 20 mg/kg, ig for one week (reference value: 1.6 g); assay type: organism-based; conditions: in vivo, po
# NCI-H1975 [5] = test: Antitumor activity against human NCI-H1975 cells xenografted in BALB/c mouse assessed as tumor growth inhibition at 10 mg/kg, ig for one week; assay type: functional
# [6] = Toxicity in BALB/c mouse xenografted with human NCI-H1975 cells assessed as body weight at 10 mg/kg, ig for one week (reference value: 1.6 g); assay type: organism-based; conditions: in vivo, po
# NCI-H1975 [7] = test: Antitumor activity against human NCI-H1975 cells xenografted in BALB/c mouse assessed as tumor volume at 10 mg/kg, ig for one week (reference value: 835.52 mm3); assay type: functional
# [8] = test system: Epidermal growth factor receptor (Homo sapiens), P00533 [L858R]; test: Inhibition of EGFR L858R mutant in human PC9 cells assessed as reduction in EGFR Y1068 phosphorylation at 5 to 100 nM incubated for 4 hrs by Western blot analysis; assay type: cell-based
# Epidermal growth factor receptor (Homo sapiens), P00533 [L858R], sequence (P00533 whole entry L858R): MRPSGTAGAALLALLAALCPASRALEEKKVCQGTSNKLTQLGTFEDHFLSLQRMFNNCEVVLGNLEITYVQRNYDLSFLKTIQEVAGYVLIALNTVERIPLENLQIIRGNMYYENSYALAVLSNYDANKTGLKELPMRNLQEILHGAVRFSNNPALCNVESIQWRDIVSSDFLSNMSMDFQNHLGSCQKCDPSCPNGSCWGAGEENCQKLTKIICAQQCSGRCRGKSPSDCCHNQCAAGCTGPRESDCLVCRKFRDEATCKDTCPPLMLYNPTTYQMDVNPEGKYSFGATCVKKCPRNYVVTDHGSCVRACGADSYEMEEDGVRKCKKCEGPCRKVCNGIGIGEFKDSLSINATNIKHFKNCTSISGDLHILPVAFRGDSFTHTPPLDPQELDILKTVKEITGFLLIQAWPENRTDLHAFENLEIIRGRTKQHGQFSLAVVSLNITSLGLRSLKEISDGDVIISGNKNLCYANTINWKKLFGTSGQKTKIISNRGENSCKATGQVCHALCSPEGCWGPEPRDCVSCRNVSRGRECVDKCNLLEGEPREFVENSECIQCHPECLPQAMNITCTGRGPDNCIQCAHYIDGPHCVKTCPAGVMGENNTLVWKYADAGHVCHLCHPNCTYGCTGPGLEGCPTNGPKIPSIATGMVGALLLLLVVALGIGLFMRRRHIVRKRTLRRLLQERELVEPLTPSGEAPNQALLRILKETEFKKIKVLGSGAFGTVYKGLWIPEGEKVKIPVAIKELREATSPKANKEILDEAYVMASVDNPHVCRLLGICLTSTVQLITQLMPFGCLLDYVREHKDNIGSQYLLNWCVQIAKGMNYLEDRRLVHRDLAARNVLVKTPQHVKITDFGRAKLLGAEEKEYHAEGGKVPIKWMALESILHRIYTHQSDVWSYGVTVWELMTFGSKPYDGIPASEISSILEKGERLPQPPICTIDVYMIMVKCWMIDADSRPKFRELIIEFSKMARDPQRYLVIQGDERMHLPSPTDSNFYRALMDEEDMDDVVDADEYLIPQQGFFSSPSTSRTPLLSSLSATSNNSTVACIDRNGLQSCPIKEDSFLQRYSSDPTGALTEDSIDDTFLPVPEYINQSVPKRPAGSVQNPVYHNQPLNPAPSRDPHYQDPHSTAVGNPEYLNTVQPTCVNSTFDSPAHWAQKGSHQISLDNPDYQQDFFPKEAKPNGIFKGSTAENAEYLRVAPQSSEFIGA
# [9] = test system: Epidermal growth factor receptor (Homo sapiens), P00533 [L858R,T790M]; test: Inhibition of EGFR T790M/L858R mutant in human NCI-H1975 cells assessed as reduction in AKT phosphorylation at 5 to 100 nM incubated for 4 hrs by Western blot analysis; assay type: cell-based
# Epidermal growth factor receptor (Homo sapiens), P00533 [L858R,T790M], sequence (P00533 whole entry T790M/L858R, looked up): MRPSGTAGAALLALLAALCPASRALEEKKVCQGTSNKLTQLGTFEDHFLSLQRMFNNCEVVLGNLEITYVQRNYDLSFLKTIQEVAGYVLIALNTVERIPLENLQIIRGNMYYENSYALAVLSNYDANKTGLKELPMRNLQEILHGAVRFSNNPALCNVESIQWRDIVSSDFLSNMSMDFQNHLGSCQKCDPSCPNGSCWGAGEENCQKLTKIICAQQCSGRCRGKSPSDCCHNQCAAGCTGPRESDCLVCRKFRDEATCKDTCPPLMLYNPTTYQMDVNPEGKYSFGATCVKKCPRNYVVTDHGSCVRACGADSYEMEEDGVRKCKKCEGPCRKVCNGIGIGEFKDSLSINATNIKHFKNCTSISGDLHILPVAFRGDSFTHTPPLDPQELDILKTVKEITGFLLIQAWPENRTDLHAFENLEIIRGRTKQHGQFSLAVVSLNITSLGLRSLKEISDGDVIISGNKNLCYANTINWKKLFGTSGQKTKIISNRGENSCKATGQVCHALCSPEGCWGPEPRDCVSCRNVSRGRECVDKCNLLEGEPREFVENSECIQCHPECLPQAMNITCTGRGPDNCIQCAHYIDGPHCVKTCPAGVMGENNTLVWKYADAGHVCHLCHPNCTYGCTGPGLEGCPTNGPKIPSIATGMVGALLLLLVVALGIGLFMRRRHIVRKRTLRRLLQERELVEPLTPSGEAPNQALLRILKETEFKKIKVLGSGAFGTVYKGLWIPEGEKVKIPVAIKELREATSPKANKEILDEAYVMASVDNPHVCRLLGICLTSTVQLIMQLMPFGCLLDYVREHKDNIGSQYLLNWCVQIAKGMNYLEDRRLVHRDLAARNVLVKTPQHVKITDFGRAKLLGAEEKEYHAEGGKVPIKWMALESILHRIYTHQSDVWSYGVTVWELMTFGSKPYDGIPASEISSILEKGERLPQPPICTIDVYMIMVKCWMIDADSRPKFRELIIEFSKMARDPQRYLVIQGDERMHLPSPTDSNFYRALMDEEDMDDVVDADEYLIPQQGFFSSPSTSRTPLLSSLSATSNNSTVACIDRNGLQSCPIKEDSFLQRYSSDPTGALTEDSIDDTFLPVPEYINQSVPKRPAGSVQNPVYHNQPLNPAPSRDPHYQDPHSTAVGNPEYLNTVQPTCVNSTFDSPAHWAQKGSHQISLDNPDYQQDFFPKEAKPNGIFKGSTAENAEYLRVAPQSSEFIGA
# NCI-H1975 [10] = test: Induction of apoptosis in human NCI-H1975 cells assessed as upregulation of Bad at 10 to 50 nM incubated for 24 hrs by Western blot analysis; assay type: functional, cell-based
# [11] = target: T1, Epidermal growth factor receptor (Homo sapiens, UniProt P00533); test: Inhibition of EGFR in human NCI-H292 cells assessed as reduction in AKT phosphorylation at 5 to 100 nM incubated for 4 hrs by Western blot analysis; assay type: cell-based
# T1 sequence (P00533 whole entry): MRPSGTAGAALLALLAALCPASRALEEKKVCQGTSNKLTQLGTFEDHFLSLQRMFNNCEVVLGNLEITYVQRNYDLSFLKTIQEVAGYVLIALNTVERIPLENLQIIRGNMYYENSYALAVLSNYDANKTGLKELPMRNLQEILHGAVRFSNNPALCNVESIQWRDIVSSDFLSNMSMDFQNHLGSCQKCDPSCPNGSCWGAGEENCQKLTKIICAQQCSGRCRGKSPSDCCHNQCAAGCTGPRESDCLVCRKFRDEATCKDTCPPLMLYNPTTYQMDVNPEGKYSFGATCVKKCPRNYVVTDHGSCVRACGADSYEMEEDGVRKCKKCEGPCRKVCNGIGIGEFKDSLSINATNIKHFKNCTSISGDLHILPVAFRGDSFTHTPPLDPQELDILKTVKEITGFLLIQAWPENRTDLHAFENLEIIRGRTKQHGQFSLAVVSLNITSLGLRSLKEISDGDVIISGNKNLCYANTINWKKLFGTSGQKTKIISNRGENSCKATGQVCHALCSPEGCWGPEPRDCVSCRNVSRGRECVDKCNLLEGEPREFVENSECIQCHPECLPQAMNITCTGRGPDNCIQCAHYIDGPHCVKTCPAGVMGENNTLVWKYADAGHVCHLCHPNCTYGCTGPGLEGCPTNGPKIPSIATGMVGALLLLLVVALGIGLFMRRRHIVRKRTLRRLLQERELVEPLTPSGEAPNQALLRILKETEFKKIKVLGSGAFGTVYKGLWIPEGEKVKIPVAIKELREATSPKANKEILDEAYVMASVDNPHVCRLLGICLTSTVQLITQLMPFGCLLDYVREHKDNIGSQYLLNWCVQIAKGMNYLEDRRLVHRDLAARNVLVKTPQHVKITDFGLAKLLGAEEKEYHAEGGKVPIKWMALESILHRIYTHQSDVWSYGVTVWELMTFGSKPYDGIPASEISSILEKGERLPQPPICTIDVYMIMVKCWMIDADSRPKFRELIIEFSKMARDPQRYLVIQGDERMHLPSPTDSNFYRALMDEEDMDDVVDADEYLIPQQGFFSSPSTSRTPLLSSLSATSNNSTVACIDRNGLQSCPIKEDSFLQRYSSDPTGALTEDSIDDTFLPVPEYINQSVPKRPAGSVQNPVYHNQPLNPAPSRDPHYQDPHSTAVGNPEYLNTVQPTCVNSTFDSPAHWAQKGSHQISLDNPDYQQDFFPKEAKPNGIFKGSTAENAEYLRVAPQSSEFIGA
# NCI-H1975 [12] = test: Induction of apoptosis in human NCI-H1975 cells assessed as upregulation of Bax at 10 to 50 nM incubated for 24 hrs by Western blot analysis; assay type: functional, cell-based
# [13] = test system: Epidermal growth factor receptor (Homo sapiens), P00533 [L858R,T790M]; test: Inhibition of EGFR T790M/L858R mutant in human NCI-H1975 cells assessed as reduction in EGFR Y1068 phosphorylation incubated for 4 hrs by Western blot analysis; assay type: cell-based
# [14] = test system: Epidermal growth factor receptor (Homo sapiens), P00533 [L858R,T790M]; test: Inhibition of EGFR T790M/L858R mutant in human NCI-H1975 cells assessed as reduction in AKT phosphorylation incubated for 4 hrs by Western blot analysis; assay type: cell-based
# NCI-H1975 [15] = test: Induction of apoptosis in human NCI-H1975 cells assessed as downregulation of Bcl-2 at 10 to 50 nM incubated for 24 hrs by Western blot analysis; assay type: functional, cell-based
# [16] = test system: Epidermal growth factor receptor (Homo sapiens), P00533 [L858R,T790M]; test: Inhibition of EGFR T790M/L858R mutant in human NCI-H1975 cells assessed as reduction in EGFR Y1068 phosphorylation at 5 to 100 nM incubated for 4 hrs by Western blot analysis; assay type: cell-based
# [17] = target: T1, Epidermal growth factor receptor; test: Inhibition of EGFR in human NCI-H292 cells assessed as reduction in EGFR Y1068 phosphorylation at 5 to 100 nM incubated for 4 hrs by Western blot analysis; assay type: cell-based
# [18] = test system: Epidermal growth factor receptor (Homo sapiens), P00533 [L858R]; test: Inhibition of EGFR L858R mutant in human PC9 cells assessed as reduction in AKT phosphorylation incubated for 4 hrs by Western blot analysis; assay type: cell-based
# [19] = target: T1, Epidermal growth factor receptor; test: Inhibition of EGFR in human NCI-H292 cells assessed as reduction in AKT phosphorylation incubated for 4 hrs by Western blot analysis; assay type: cell-based
# [20] = test system: Epidermal growth factor receptor (Homo sapiens), P00533 [L858R]; test: Inhibition of EGFR L858R mutant in human PC9 cells assessed as reduction in AKT phosphorylation at 5 to 100 nM incubated for 4 hrs by Western blot analysis; assay type: cell-based
# NCI-H1975 [21] = test: Antitumor activity against human NCI-H1975 cells xenografted in ig dosed BALB/c mouse assessed as tumor growth inhibition for one week; assay type: functional, organism-based
# NCI-H1975 [22] = test: Induction of apoptosis in human NCI-H1975 cells assessed as reduction in mitochondrial membrane potential at 5 to 50 nM incubated for 24 hrs by JC-1 staining based laser scanning confocal microscopy; assay type: functional, cell-based
# [23] = Mus musculus, NCI-H1975, po, 168 h, read-out: TGI
structure (smiles),measurement,setting,value
C=CC(=O)Nc1cc(Nc2nccc(-c3cn(C)c4ccccc34)n2)c(OC)cc1N(C)CCN(C)C.O=S(=O)(O)O,Activity,[1],Non-Toxic
same,TGI,NCI-H1975 [2],98.49%
same,Activity,NCI-H1975 [3],18.23 mm3
same,Activity,[4],1.9 g
"C=CC(=O)Nc1cc(Nc2nccc(-c3cn(C)c4ccccc34)n2)c(OC)cc1[S+]([O-])CCN(C)C.O=S(=O)(O)O (single isomer, unassigned; (+))",TGI,NCI-H1975 [2],85.41%
same,TGI,NCI-H1975 [5],81.82%
same,Activity,NCI-H1975 [3],117.87 mm3
same,Activity,[6],2.1 g
same,Activity,[4],2.1 g
same,Activity,NCI-H1975 [7],141.5 mm3
"C=CC(=O)Nc1cc(Nc2nccc(-c3cn(C)c4ccccc34)n2)c(OC)cc1[S+]([O-])CCN(C)C.O=S(=O)(O)O (single isomer, unassigned; (-))",Activity,[1],Non-Toxic
same,inhibition in vivo at 20 mg/kg,NCI-H1975 [2]; [23],94.3%
same,inhibition in vivo at 10 mg/kg,NCI-H1975 [5]; [23],87.6%
same,Activity,NCI-H1975 [3],48.23 mm3
same,Activity,[6],1.6 g
same,Activity,[4],2.4 g
same,Activity,NCI-H1975 [7],106.81 mm3
"C=CC(=O)Nc1cc(Nc2nccc(-c3cn(C)c4ccccc34)n2)c(OC)cc1[S+]([O-])CCN(C)C (single isomer, unassigned; (-))",inhibition,[8],Active
same,inhibition,[9],Active
same,Activity,NCI-H1975 [10],Active
same,inhibition,[11],Active
same,Activity,NCI-H1975 [12],Active
same,inhibition,[13],Dose-dependent effect
same,inhibition,[14],Dose-dependent effect
same,Activity,NCI-H1975 [15],Active
same,inhibition,[16],Active
same,inhibition,[17],Active
same,inhibition,[18],Dose-dependent effect
same,inhibition,[19],Dose-dependent effect
same,inhibition,[20],Active
same,TGI,NCI-H1975 [21],Dose-dependent effect
same,Activity,NCI-H1975 [22],Dose-dependent effect
